According to ChEMBL document CHEMBL4118038, “Tricyclic Polyprenylated Acylphloroglucinols from St John's Wort, Hypericum perforatum” (J Nat Prod, 2017):

What follows are compounds tested against Acetylcholinesterase (Homo sapiens, UniProt P22303) (assay: Inhibition of human erythrocyte AChE using S-acetylthiocholine iodide as substrate preincubated for 20 mins followed by substrate addition measured every 30 secs for 1 hr by Ellman's method). Details: not given.
Chain of Acetylcholinesterase (P22303 whole entry): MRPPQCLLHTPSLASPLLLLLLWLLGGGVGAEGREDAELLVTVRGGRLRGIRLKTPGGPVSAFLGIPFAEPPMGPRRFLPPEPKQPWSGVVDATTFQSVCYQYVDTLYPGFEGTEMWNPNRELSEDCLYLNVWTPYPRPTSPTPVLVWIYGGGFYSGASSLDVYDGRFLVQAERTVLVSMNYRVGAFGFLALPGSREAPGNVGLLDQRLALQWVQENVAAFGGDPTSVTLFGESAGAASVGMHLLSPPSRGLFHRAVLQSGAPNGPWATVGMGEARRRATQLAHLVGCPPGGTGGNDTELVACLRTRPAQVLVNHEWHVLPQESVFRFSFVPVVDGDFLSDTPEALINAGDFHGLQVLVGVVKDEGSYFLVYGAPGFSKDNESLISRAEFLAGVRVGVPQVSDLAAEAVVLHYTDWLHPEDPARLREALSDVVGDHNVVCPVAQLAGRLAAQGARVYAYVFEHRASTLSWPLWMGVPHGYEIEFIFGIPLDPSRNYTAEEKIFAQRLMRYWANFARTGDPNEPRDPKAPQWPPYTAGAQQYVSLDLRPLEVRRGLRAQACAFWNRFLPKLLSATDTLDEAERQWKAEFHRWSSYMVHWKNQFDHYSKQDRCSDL

Q: How did the IC50 turn out when CC(C)=CCC[C@]1(C)[C@@H](CC=C(C)C)C[C@]2(CC=C(C)C)C(=O)C3=C(O[C@@H](C(C)(C)O)[C@@H]3O)[C@@]1(C(=O)C(C)C)C2=O was run?
A: 12.6 µM

Q: CC(C)=CC[C@H]1C[C@@]2(CC=C(C)C)C(=O)[C@](C(=O)C(C)C)(C(=O)C3=C2O[C@H](C(C)(C)O)C3)[C@]1(C)CCC(=O)C(C)C was tested. Which IC50 did it give?
A: 10.9 µM

Q: With C=C(C)[C@@H](O)CC[C@]1(C)[C@@H](CC=C(C)C)C[C@]23C[C@@H](C(C)(C)O)OC2=C(CC=C(C)C)C(=O)[C@@]1(C(=O)C(C)C)C3=O as the compound, how does the IC50 read?
A: 9.13 µM

Q: With CC(C)=CCC[C@]1(C)[C@@H](CC=C(C)C)C[C@@]2(CC=C(C)C)C(=O)[C@]1(C(=O)C(C)C)C(=O)C1=C2O[C@@H](C(C)(C)O)[C@@H]1O as the compound, how does the IC50 read?
A: 11.3 µM

Q: How did the IC50 turn out when COC(C)(C)/C=C/C[C@]1(C)[C@@H](CC=C(C)C)C[C@]2(CC=C(C)C)C(=O)C3=C(O[C@H](C(C)(C)O)C3)[C@@]1(C(=O)C(C)C)C2=O was run?
A: 3.98 µM

Q: CC(=O)[C@@]12C(=O)C(CC=C(C)C)=C3O[C@H](C(C)(C)O)C[C@]3(C[C@H](CC=C(C)C)[C@@]1(C)CCC=C(C)C)C2=O was tested. Which IC50 did it give?
A: 8.75 µM

Q: How did the IC50 turn out when C=C(C)[C@H](O)CC[C@]1(C)[C@@H](CC=C(C)C)C[C@@]2(CC=C(C)C)C(=O)[C@]1(C(=O)C(C)C)C(=O)C1=C2O[C@@H](C(C)(C)O)C1 was run?
A: 25.1 µM

Q: For C=C(C)[C@@H](O)CC[C@]1(C)[C@@H](CC=C(C)C)C[C@]2(CC=C(C)C)C(=O)C3=C(O[C@H](C(C)(C)O)C3)[C@@]1(C(=O)C(C)C)C2=O, which IC50 is on record?
A: 10.7 µM

Q: With COC(C)(C)/C=C/C[C@]1(C)[C@@H](CC=C(C)C)C[C@]2(CC=C(C)C)C(=O)C3=C(O[C@@H](C(C)(C)O)C3)[C@@]1(C(=O)C(C)C)C2=O as the compound, how does the IC50 read?
A: 7.17 µM

Q: Which IC50 does the source give for CC(C)=CCC[C@]1(C)[C@@H](CC=C(C)C)C[C@@]2(CC=C(C)C)C(=O)[C@]1(C(=O)C(C)C)C(=O)C1=C2O[C@H](C(C)(C)O)[C@H]1O here?
A: 18.6 µM

Q: Which IC50 does the source give for CC(C)=CCC[C@]1(C)[C@@H](CC=C(C)C)C[C@]2(CC=C(C)C)C(=O)C3=C(O[C@H](C(C)(C)O)[C@H]3O)[C@@]1(C(=O)C(C)C)C2=O here?
A: 8.83 µM

Q: How did the IC50 turn out when CC(C)=CCC1=C2O[C@H](C(C)(C)O)C[C@@]23C[C@H](CC=C(C)C)[C@@](C)(CCC(=O)C(C)C)[C@@](C(=O)C(C)C)(C1=O)C3=O was run?
A: 24.3 µM

Q: With C=C(C)[C@H](O)CC[C@]1(C)[C@@H](CC=C(C)C)C[C@]2(CC=C(C)C)C(=O)C3=C(O[C@H](C(C)(C)O)C3)[C@@]1(C(=O)C(C)C)C2=O as the compound, how does the IC50 read?
A: 19.6 µM

Q: With C=C(C)[C@H](O)CC[C@]1(C)[C@@H](CC=C(C)C)C[C@@]2(CC=C(C)C)C(=O)[C@]1(C(=O)C(C)C)C(=O)C1=C2O[C@H](C(C)(C)O)C1 as the compound, how does the IC50 read?
A: 26.4 µM

These compounds were tested on SMMC-7721 (assay: Cytotoxicity against human SMMC7721 cells assessed as reduction in cell viability after 48 hrs by MTS assay). Details: SMMC-7721, 48 h.
Assay type: functional, cell-based

Q: How did the IC50 turn out when CC(=O)[C@@]12C(=O)C(CC=C(C)C)=C3O[C@H](C(C)(C)O)C[C@]3(C[C@H](CC=C(C)C)[C@@]1(C)CCC=C(C)C)C2=O was run?
A: 10 µM

Q: Which IC50 does the source give for C=C(C)[C@H](O)CC[C@]1(C)[C@@H](CC=C(C)C)C[C@@]2(CC=C(C)C)C(=O)[C@]1(C(=O)C(C)C)C(=O)C1=C2O[C@H](C(C)(C)O)C1 here?
A: 9.1 µM
